What was measured:
Type in all cases: biochemical
MKK4 = molecular target: T1, MKK4 (Homo sapiens, UniProt P45985); assay: 33PanQinase radiometric kinase assay, MKK4; details: category based on IC50-values; ATP at apparent Km; read-out: Potency MKK4
T1 construct: purchased ProQinase GmbH, Freiburg, Germany (assay service)
T1 sequence (P45985 1-399): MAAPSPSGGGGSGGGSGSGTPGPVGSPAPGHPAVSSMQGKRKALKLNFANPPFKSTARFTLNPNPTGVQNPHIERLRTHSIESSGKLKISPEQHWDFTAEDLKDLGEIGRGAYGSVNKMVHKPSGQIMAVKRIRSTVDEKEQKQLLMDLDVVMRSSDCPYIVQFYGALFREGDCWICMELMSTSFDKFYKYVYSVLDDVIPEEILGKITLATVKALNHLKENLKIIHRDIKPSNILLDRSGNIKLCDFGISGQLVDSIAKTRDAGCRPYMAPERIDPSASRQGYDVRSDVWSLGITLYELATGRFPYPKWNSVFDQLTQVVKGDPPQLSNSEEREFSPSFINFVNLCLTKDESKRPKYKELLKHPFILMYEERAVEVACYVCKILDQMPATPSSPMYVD
Procedure: (§1) The kinase activities of the compounds of the invention were measured using the 33PanQinase® Assay Service provided by ProQinase GmbH, Freiburg, Germany. Details of the assay conditions are disclosed on the website of ProQinase (https://www.proqinase.com/products-services-biochemical-assay-services/kinase-assays). In brief, all kinase assays were performed in 96-well FlashPlates™ from PerkinElmer (Boston, MA, USA) in a 50 μl reaction volume. The reaction cocktail was pipetted in four steps in the following order: • 20 μl of assay buffer (standard buffer) • 5 μl of ATP solution (in H2O) • 5 μl of test compound (in 10% DMSO) • 20 μl enzyme/substrate mix
(§2) The reaction cocktails were incubated at 30° C. for 60 minutes. The reaction is stopped with 50 μl of 2% (v/v) H3PO4, plates were aspirated and washed two times with 200 μl 0.9% (w/v) NaCl. Incorporation of ^33Pi was determined with a microplate scintillation counter (Microbeta, Wallac).
(§3) All assays were performed with a BeckmanCoulter/SAGIAN™ Core System.
(§4) In case of single concentration assays, the potency of the test compound is expressed as % residual activity. […] The fitting method used was a least-squares fit.

BRaf = molecular target: T2, BRaf (Homo sapiens, UniProt P15056); assay: 33PanQinase radiometric kinase assay, BRaf (off-target); details: ratio IC50(off-target)/IC50(MKK4)
T2 construct: purchased ProQinase GmbH, Freiburg, Germany (assay service)
T2 sequence (P15056 whole entry): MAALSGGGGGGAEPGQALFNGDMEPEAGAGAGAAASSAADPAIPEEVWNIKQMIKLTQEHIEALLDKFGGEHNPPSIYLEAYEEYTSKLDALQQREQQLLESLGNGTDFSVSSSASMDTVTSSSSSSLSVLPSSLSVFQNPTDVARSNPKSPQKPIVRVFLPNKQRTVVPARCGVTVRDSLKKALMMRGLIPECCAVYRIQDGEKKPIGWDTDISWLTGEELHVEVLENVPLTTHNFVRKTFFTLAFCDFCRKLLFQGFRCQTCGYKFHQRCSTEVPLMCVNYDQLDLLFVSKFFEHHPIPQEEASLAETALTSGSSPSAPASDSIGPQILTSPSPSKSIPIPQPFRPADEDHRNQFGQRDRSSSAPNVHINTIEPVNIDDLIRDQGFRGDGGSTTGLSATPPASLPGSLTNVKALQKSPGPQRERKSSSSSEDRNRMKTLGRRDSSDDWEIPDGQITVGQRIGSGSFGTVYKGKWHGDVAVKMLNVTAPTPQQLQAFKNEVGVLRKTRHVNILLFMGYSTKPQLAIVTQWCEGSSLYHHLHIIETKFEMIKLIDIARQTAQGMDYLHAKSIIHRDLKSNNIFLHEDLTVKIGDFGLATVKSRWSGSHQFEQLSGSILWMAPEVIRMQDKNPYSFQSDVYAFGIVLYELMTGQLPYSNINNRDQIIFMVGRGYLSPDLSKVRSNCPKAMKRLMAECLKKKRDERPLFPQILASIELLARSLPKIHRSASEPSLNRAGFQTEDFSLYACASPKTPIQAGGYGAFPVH
Procedure: as §1, §2, §3, §4
(§5) Selectivity of test compounds against BRaf, JNK1 and MKK7, altogether denominated as off-targets was calculated by the ratio of IC50 (off-target)/IC50 (MKK4) and categorized as follows: […]

JNK1 = molecular target: T3, JNK1 (Homo sapiens, UniProt P45983); assay: 33PanQinase radiometric kinase assay, JNK1 (off-target); details: ratio IC50(off-target)/IC50(MKK4)
T3 construct: purchased ProQinase GmbH, Freiburg, Germany (assay service)
T3 sequence (P45983 whole entry): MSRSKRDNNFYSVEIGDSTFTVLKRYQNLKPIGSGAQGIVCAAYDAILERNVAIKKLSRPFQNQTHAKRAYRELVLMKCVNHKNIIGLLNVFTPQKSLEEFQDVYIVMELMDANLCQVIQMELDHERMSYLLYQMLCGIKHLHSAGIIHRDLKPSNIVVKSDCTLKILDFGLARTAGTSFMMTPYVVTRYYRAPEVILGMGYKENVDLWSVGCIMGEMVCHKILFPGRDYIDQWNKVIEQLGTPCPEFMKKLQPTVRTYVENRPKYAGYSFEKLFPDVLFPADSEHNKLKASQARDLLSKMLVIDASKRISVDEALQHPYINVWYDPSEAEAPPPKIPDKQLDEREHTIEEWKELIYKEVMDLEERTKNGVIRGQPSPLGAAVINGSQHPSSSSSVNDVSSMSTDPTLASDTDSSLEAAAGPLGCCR
Procedure: as §1, §2, §3, §4, §5

MKK7 = molecular target: T4, MKK7 (Homo sapiens, UniProt O14733); assay: 33PanQinase radiometric kinase assay, MKK7 (off-target); details: ratio IC50(off-target)/IC50(MKK4)
T4 construct: purchased ProQinase GmbH, Freiburg, Germany (assay service)
T4 sequence (O14733 1-419): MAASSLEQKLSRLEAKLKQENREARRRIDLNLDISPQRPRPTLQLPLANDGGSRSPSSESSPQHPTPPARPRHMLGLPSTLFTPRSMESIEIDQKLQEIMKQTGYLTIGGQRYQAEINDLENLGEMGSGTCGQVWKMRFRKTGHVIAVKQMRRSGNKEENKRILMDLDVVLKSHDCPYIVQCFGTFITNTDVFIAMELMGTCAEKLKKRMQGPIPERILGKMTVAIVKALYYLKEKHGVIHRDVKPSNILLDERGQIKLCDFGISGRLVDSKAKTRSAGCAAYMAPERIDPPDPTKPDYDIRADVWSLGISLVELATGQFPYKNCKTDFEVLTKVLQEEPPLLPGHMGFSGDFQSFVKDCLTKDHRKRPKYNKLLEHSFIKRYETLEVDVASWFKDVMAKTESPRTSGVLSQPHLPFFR
Procedure: as §1, §2, §3, §4, §5

IC50 (MKK4)	Selectivity Braf (BRaf)	Selectivity JNK1 (JNK1)	Selectivity MKK7 (MKK7)	Structure (SMILES)
< 100 nM	+++ (IC50(off-target)/IC50(MKK4) > 100)	+++ (IC50(off-target)/IC50(MKK4) > 100)	+++ (IC50(off-target)/IC50(MKK4) > 100)	CCCS(=O)(=O)Nc1c(F)ccc(C(=O)c2n[nH]c3ncc(-c4cccnc4)cc23)c1F [Example 27, N-(2,6-difluoro-3-(5-(pyridin-3-yl)-1H-pyrazolo[3,4-b]pyridine-3-carbonyl)phenyl)propane-1-sulfonamide]
< 100 nM	+++ (IC50(off-target)/IC50(MKK4) > 100)	+++ (IC50(off-target)/IC50(MKK4) > 100)	+++ (IC50(off-target)/IC50(MKK4) > 100)	CCCS(=O)(=O)Nc1c(F)ccc(C(=O)c2n[nH]c3ncc(-c4cnc(SC)nc4)cc23)c1F [Example 22, N-(2,6-difluoro-3-(5-(2-(methylthio)pyrimidin-5-yl)-1H-pyrazolo[3,4-b]pyridine-3-carbonyl)phenyl)propane-1-sulfonamide]
< 100 nM	+++ (IC50(off-target)/IC50(MKK4) > 100)	+++ (IC50(off-target)/IC50(MKK4) > 100)	+++ (IC50(off-target)/IC50(MKK4) > 100)	CCCS(=O)(=O)Nc1c(F)ccc(C(=O)c2n[nH]c3ncc(-c4cnc(C(C)C)nc4)cc23)c1F [Example 23, N-(2,6-difluoro-3-(5-(2-isopropylpyrimidin-5-yl)-1H-pyrazolo[3,4-b]pyridine-3-carbonyl)phenyl)propane-1-sulfonamide]
< 100 nM	+++ (IC50(off-target)/IC50(MKK4) > 100)	+++ (IC50(off-target)/IC50(MKK4) > 100)	+++ (IC50(off-target)/IC50(MKK4) > 100)	CCCS(=O)(=O)Nc1c(F)ccc(C(=O)c2n[nH]c3ncc(-c4cnc(O)nc4)cc23)c1F [Example 16, N-(2,6-difluoro-3-(5-(2-hydroxypyrimidin-5-yl)-1H-pyrazolo[3,4-b]pyridine-3-carbonyl)phenyl)propane-1-sulfonamide]
100 to 1000 nM	+++ (IC50(off-target)/IC50(MKK4) > 100)	+++ (IC50(off-target)/IC50(MKK4) > 100)	+++ (IC50(off-target)/IC50(MKK4) > 100)	CCCS(=O)(=O)Nc1c(F)ccc(C(=O)c2n[nH]c3ncc(-c4cnc(C5CC5)nc4C)cc23)c1F [Example 31, N-(3-(5-(2-cyclopropyl-4-methylpyrimidin-5-yl)-1H-pyrazolo[3,4-b]pyridine-3 carbonyl)-2,6-difluorophenyl)propane-1-sulfonamide]
< 100 nM	+++ (IC50(off-target)/IC50(MKK4) > 100)	+++ (IC50(off-target)/IC50(MKK4) > 100)	+++ (IC50(off-target)/IC50(MKK4) > 100)	CCCS(=O)(=O)Nc1c(F)ccc(C(=O)c2n[nH]c3ncc(-c4ccncc4Cl)cc23)c1F [Example 17, N-(3-(5-(3-chloropyridin-4-yl)-1H-pyrazolo[3,4-b]pyridine-3-carbonyl)-2,6-difluorophenyl)propane-1-sulfonamide]
< 100 nM	+++ (IC50(off-target)/IC50(MKK4) > 100)	+++ (IC50(off-target)/IC50(MKK4) > 100)	+++ (IC50(off-target)/IC50(MKK4) > 100)	CCCS(=O)(=O)Nc1c(F)ccc(C(=O)c2n[nH]c3ncc(-c4cnc(SC)nc4C)cc23)c1F [Example 33, N-[2,6-difluoro-3-[5-(4-methyl-2-methylsulfanyl-pyrimidin-5-yl)-1H-pyrazolo[3,4-b]pyridine-3-carbonyl]phenyl]propane-1-sulfonamide]

Continued, molecule first:

Structure (SMILES)	IC50 (MKK4)	Selectivity Braf (BRaf)	Selectivity JNK1 (JNK1)	Selectivity MKK7 (MKK7)
CCCS(=O)(=O)Nc1c(F)ccc(C(=O)c2n[nH]c3ncc(-c4cnc(-c5nnn[nH]5)nc4)cc23)c1F [Example 10, N-(3-(5-(2-(1H-tetrazol-5-yl)pyrimidin-5-yl)-1H-pyrazolo[3,4-b]pyridine-3-carbonyl)-2,6-difluorophenyl)propane-1-sulfonamide]	< 100 nM	+++ (IC50(off-target)/IC50(MKK4) > 100)	+++ (IC50(off-target)/IC50(MKK4) > 100)	++ (100 ≥ IC50(off-target)/IC50(MKK4) > 10)
CCCS(=O)(=O)Nc1c(F)ccc(C(=O)c2n[nH]c3ncc(-c4cnc(C(=O)O)nc4)cc23)c1F [Example 8, 5-(3-(2,4-difluoro-3-(propylsulfonamido)benzoyl)-1H-pyrazolo[3,4-b]pyridin-5-yl)pyrimidine-2-carboxylic acid]	< 100 nM	+++ (IC50(off-target)/IC50(MKK4) > 100)	+++ (IC50(off-target)/IC50(MKK4) > 100)	++ (100 ≥ IC50(off-target)/IC50(MKK4) > 10)
CCCS(=O)(=O)Nc1c(F)ccc(C(=O)c2n[nH]c3ncc(-c4ccc(C(=O)O)nc4)cc23)c1F [Example 28, 5-(3-(2,4-difluoro-3-(propylsulfonamido)benzoyl)-1H-pyrazolo[3,4-b]pyridin-5-yl)picolinic acid]	< 100 nM	+++ (IC50(off-target)/IC50(MKK4) > 100)	+++ (IC50(off-target)/IC50(MKK4) > 100)	++ (100 ≥ IC50(off-target)/IC50(MKK4) > 10)
CS(=O)(=O)Nc1c(F)ccc(C(=O)c2n[nH]c3ncc(-c4ccc(Cl)cc4)cc23)c1F [Example 2, N-(3-(5-(4-chlorophenyl)-1H-pyrazolo[3,4-b]pyridine-3-carbonyl)-2,6-difluorophenyl)methanesulfonamide]	< 100 nM	+++ (IC50(off-target)/IC50(MKK4) > 100)	+++ (IC50(off-target)/IC50(MKK4) > 100)	+++ (IC50(off-target)/IC50(MKK4) > 100)
CCS(=O)(=O)Nc1c(F)ccc(C(=O)c2n[nH]c3ncc(-c4ccc(Cl)cc4)cc23)c1F [Example 3, N-(3-(5-(4-chlorophenyl)-1H-pyrazolo[3,4-b]pyridine-3-carbonyl)-2,6-difluorophenyl)ethanesulfonamide]	100 to 1000 nM	+++ (IC50(off-target)/IC50(MKK4) > 100)	++ (100 ≥ IC50(off-target)/IC50(MKK4) > 10)	+++ (IC50(off-target)/IC50(MKK4) > 100)
CCCS(=O)(=O)Nc1c(F)ccc(C(=O)c2n[nH]c3ncc(-c4cnc(C)nc4)cc23)c1F [Example 7, N-(2,6-difluoro-3-(5-(2-methylpyrimidin-5-yl)-1H-pyrazolo[3,4-b]pyridine-3-carbonyl)phenyl)propane-1-sulfonamide]	< 100 nM	+++ (IC50(off-target)/IC50(MKK4) > 100)	+++ (IC50(off-target)/IC50(MKK4) > 100)	+++ (IC50(off-target)/IC50(MKK4) > 100)
CCCS(=O)(=O)Nc1c(F)ccc(C(=O)c2n[nH]c3ncc(-c4cnc(Cl)nc4)cc23)c1F [Example 12, N-(3-(5-(2-chloropyrimidin-5-yl)-1H-pyrazolo[3,4-b]pyridine-3-carbonyl)-2,6-difluorophenyl)propane-1-sulfonamide]	100 to 1000 nM	+++ (IC50(off-target)/IC50(MKK4) > 100)	+++ (IC50(off-target)/IC50(MKK4) > 100)	+++ (IC50(off-target)/IC50(MKK4) > 100)

Source: patent US12643895B2, “Heteroaryl-substituted pyrazolo-pyridine protein kinase inhibitors for promoting liver regeneration or reducing or preventing hepatocyte death” (HepaRegeniX GmbH, priority 2019, dated 2026)
